Measured values taken from patent publication US20260297083A1, “SUBSTITUTED ACETYLENE COMPOUND DERIVATIVES AND THEIR PHARMACEUTICAL USE” (AVELOS THERAPEUTICS INC., priority 2023, published 2026).

tested on: DLD-1 BRCA2(−/−) Cell; experiment: Cell viability assay (Resazurin) in DLD1-BRCA2 cells; type: cell-based; conditions: Homo sapiens, DLD-1, 336 h, 14 days, 1,500 cells/well, final DMSO 1%
Protocol: DLD1-BRCA2 KG (Horizon Discovery, Cat #HD 105-007) cells and DLD1-parental cells were maintained in culture media (RPMI-1640 including 2 mM L-glutamin and 25 mM sodium bicarbonate, supplemented with 10% FBS), at 37° C. in a humidified atmosphere with 5% CO2. Cells were seeded at the final concentration of 1,500 cells/well (DLD1-BRCA2 KG) and 600 cells/well (DLD1-parental) in a 96-well plate. Four hours later, test compounds were added (the final concentration of DMSO was 1%) to the cells and media were replaced every 3-4 days for 14 days. To measure viability, cells were incubated in culture media supplemented with 0.1 mg/ml of Resazurin (Merck, Cat #R7017) for 4 hours. The fluorescence was measured at Ex/Em=560 nm/590 nm using EnSight multimode plate reader (Perkin Elmer). Data analysis and IC50 calculation was done using GraphPad Prism (Version 10.0.2).

Row | SMILES | IC50
1 | Cc1cc(C(F)(F)F)cc(N2C(=O)CC[C@H]2C(=O)N(CC#CCN2CCN(c3ncccn3)CC2)c2ccc(F)c(C)c2F)n1 [Example 16, (S)—N-(2,4-difluoro-3-methylphenyl)-1-(6-methyl-4-(trifluoromethyl)pyridin-2-yl)-5-oxo-N-(4-(4-(pyrimidin-2-yl)piperazin-1-yl)but-2-yn-1-yl)pyrrolidine-2-carboxamide] | 1.1 to 5 µM
2 | Cc1cc(C(F)(F)F)cc(N2[C@H](C(=O)N(CC#Cc3cnc(N)cn3)c3ccc(F)c(C)c3F)CCS2(=O)=O)n1 [Example 17, (S)—N-(3-(5-aminopyrazin-2-yl)prop-2-yn-1-yl)-N-(2,4-difluoro-3-methylphenyl)-2-(6-methyl-4-(trifluoromethyl)pyridin-2-yl)isothiazolidine-3-carboxamide 1,1-dioxide] | < 1 µM
3 | Cc1cc(C(F)(F)F)cc(N2[C@H](C(=O)N(CC#Cc3ccc(N)nn3)c3ccc(F)c(C)c3)CCS2(=O)=O)n1 [Example 18, (S)-N-(3-(6-aminopyridazin-3-yl)prop-2-yn-1-yl)-N-(4-fluoro-3-methylphenyl)-2-(6-methyl-4-(trifluoromethyl)pyridin-2-yl)isothiazolidine-3-carboxamide 1,1-dioxide] | < 1 µM
4 | Cc1cc(C(F)(F)F)cc(N2[C@H](C(=O)N(CC#Cc3ccc(NC(C)C)nn3)c3ccc(F)c(C)c3)CCS2(=O)=O)n1 [Example 20] | < 1 µM
5 | Cc1cc(C(F)(F)F)cc(N2[C@H](C(=O)N(CC#Cc3ccc(NC(C)C)nn3)c3ccc(F)c(C)c3F)CCS2(=O)=O)n1 [Example 21, (S)-N-(2,4-difluoro-3-methylphenyl)-N-(3-(6-(isopropylamino)pyridazin-3-yl)prop-2-yn-1-yl)-2-(6-methyl-4-(trifluoromethyl)pyridin-2-carboxamide 1,1-dioxideyl)isothiazolidine-3-carboxamide 1,1-dioxide] | < 1 µM
6 | CC(=O)Nc1ccc(C#CCN(C(=O)[C@@H]2CCS(=O)(=O)N2c2cc(C(F)(F)F)cc(C)n2)c2ccc(F)c(C)c2)nn1 [Example 22, (S)-N-(3-(6-acetamidopyridazin-3-yl)prop-2-yn-1-yl)-N-(4-fluoro-3-methylphenyl)-2-(6-methyl-4-(trifluoromethyl)pyridin-2-yl)isothiazolidine-3-carboxamide 1,1-dioxide] | 1.1 to 5 µM
7 | Cc1cc(C(F)(F)F)cc(N2[C@H](C(=O)N(CC#Cc3ccc(N4CCOCC4)nn3)c3ccc(F)c(C)c3)CCS2(=O)=O)n1 [Example 23, (S)-N-(4-fluoro-3-methylphenyl)-2-(6-methyl-4-(trifluoromethyl)pyridin-2-yl)-N-(3-(6-morpholinopyridazin-3-yl)prop-2-yn-1-yl)isothiazolidine-3-carboxamide 1,1-dioxide] | 1.1 to 5 µM
8 | CCN1CCN(c2ccc(C#CCN(C(=O)[C@@H]3CCS(=O)(=O)N3c3cc(C(F)(F)F)cc(C)n3)c3ccc(F)c(C)c3)nn2)CC1 [Example 24, (S)-N-(3-(6-(4-ethylpiperazin-1-yl)pyridazin-3-yl)prop-2-yn-1-yl)-N-(4-fluoro-3-methylphenyl)-2-(6-methyl-4-(trifluoromethyl)pyridin-2-yl)isothiazolidine-3-carboxamide 1,1-dioxide] | < 1 µM
9 | CCN(CC)c1ccc(C#CCN(C(=O)[C@@H]2CCS(=O)(=O)N2c2cc(C(F)(F)F)cc(C)n2)c2ccc(F)c(C)c2)nn1 [Example 25, (S)-N-(3-(6-(diethylamino)pyridazin-3-yl)prop-2-yn-1-yl)-N-(4-fluoro-3-methylphenyl)-2-(6-methyl-4-(trifluoromethyl)pyridin-2-yl)isothiazolidine-3-carboxamide 1,1-dioxide] | 1.1 to 5 µM
10 | Cc1cc(C(F)(F)F)cc(N2[C@H](C(=O)N(CC#Cc3ccc(=O)[nH]n3)c3ccc(F)c(C)c3)CCS2(=O)=O)n1 [Example 26, (S)-N-(4-fluoro-3-methylphenyl)-2-(6-methyl-4-(trifluoromethyl)pyridin-2-yl)-N-(3-(6-oxo-1,6-dihydropyridazin-3-yl)prop-2-yn-1-yl)isothiazolidine-3-carboxamide 1,1-dioxide] | < 1 µM
11 | COc1ccc(C#CCN(C(=O)[C@@H]2CCS(=O)(=O)N2c2cc(C(F)(F)F)cc(C)n2)c2ccc(F)c(C)c2)nn1 [Example 27, (S)-N-(4-fluoro-3-methylphenyl)-N-(3-(6-methoxypyridazin-3-yl)prop-2-yn-1-yl)-2-(6-methyl-4-(trifluoromethyl)pyridin-2-yl)isothiazolidine-3-carboxamide 1,1-dioxide] | < 1 µM
12 | Cc1cc(C(F)(F)F)cc(N2[C@H](C(=O)N(CC#Cc3ccc(OC(F)F)nn3)c3ccc(F)c(C)c3)CCS2(=O)=O)n1 [Example 28, (S)-N-(3-(6-(difluoromethoxy)pyridazin-3-yl)prop-2-yn-1-yl)-N-(4-fluoro-3-methylphenyl)-2-(6-methyl-4-(trifluoromethyl)pyridin-2-yl)isothiazolidine-3-carboxamide 1,1-dioxide] | < 1 µM
13 | Cc1cc(C(F)(F)F)cc(N2[C@H](C(=O)N(CC#Cc3ccc(C(N)=O)nn3)c3ccc(F)c(C)c3)CCS2(=O)=O)n1 [Example 29] | < 1 µM
14 | Cc1cc(C(F)(F)F)cc(N2[C@H](C(=O)N(CC#Cc3cnc(N)cn3)c3ccc(F)c(C)c3)CCS2(=O)=O)n1 [Example 30, (S)-N-(3-(5-aminopyrazin-2-yl)prop-2-yn-1-yl)-N-(4-fluoro-3-methylphenyl)-2-(6-methyl-4-(trifluoromethyl)pyridin-2-yl)isothiazolidine-3-carboxamide 1,1-dioxide] | 1.1 to 5 µM
15 | Cc1cc(C(F)(F)F)cc(N2[C@@H](C(=O)N(CC#Cc3cnc(N)cn3)c3ccc(F)c(C)c3F)CCS2(=O)=O)n1 [Example 31, (R)-N-(3-(5-aminopyrazin-2-yl)prop-2-yn-1-yl)-N-(2,4-diffuoro-3-methylphenyl)-2-(6-methyl-4-(trifluoromethyl)pyridin-2-yl)isothiazolidine-3-carboxamide 1,1-dioxide] | > 5.1 µM
16 | Cc1ccc(F)c(N(CC#Cc2cnc(N)cn2)C(=O)[C@@H]2CCS(=O)(=O)N2c2cc(C(F)(F)F)cc(C)n2)c1 [Example 33, (S)-N-(3-(5-aminopyrazin-2-yl)prop-2-yn-1-yl)-N-(2-fluoro-5-methylphenyl)-2-(6-methyl-4-(trifluoromethyl)pyridin-2-yl)isothiazolidine-3-carboxamide 1,1-dioxide] | < 1 µM
17 | CC(=O)Nc1cnc(C#CCN(C(=O)[C@@H]2CCS(=O)(=O)N2c2cc(C(F)(F)F)cc(C)n2)c2ccc(F)c(C)c2)cn1 [Example 34, (S)-N-(3-(5-acetamidopyrazin-2-yl)prop-2-yn-1-yl)-N-(4-fluoro-3-methylphenyl)-2-(6-methyl-4-(trifluoromethyl)pyridin-2-yl)isothiazolidine-3-carboxamide 1,1-dioxide] | 1.1 to 5 µM
18 | Cc1cc(C(F)(F)F)cc(N2[C@H](C(=O)N(CC#Cc3cnc(NC(N)=O)cn3)c3ccc(F)c(C)c3)CCS2(=O)=O)n1 [Example 35, (S)-N-(4-fluoro-3-methylphenyl)-2-(6-methyl-4-(trifluoromethyl)pyridin-2-yl)-N-(3-(5-ureidopyrazin-2-yl)prop-2-yn-1-yl)isothiazolidine-3-carboxamide 1,1-dioxide] | 1.1 to 5 µM
19 | Cc1cc(C(F)(F)F)cc(N2[C@H](C(=O)N(CC#Cc3cnc(NC(C)C)cn3)c3ccc(F)c(C)c3)CCS2(=O)=O)n1 [Example 36, (S)-N-(4-fluoro-3-methylphenyl)-N-(3-(5-(isopropylamino)pyrazin-2-yl)prop-2-yn-1-yl)-2-(6-methyl-4-(trifluoromethyl)pyridin-2-yl)isothiazolidine-3-carboxamide 1,1-dioxide] | < 1 µM
20 | Cc1ccc(F)c(N(CC#Cc2cnc(NC(C)C)cn2)C(=O)[C@@H]2CCS(=O)(=O)N2c2cc(C(F)(F)F)cc(C)n2)c1 [Example 37, (S)-N-(2-fluoro-5-methylphenyl)-N-(3-(5-(isopropylamino)pyrazin-2-yl)prop-2-yn-1-yl)-2-(6-methyl-4-(trifluoromethyl)pyridin-2-yl)isothiazolidine-3-carboxamide 1,1-dioxide] | 1.1 to 5 µM
21 | Cc1cc(C(F)(F)F)cc(N2[C@H](C(=O)N(CC#Cc3cnc(N4CC5(COC5)C4)cn3)c3ccc(F)c(C)c3)CCS2(=O)=O)n1 [Example 38, (S)-N-(3-(5-(2-oxa-6-azaspiro[3.3]heptan-6-yl)pyrazin-2-yl)prop-2-yn-1-yl)-N-(4-fluoro-3-methylphenyl)-2-(6-methyl-4-(trifluoromethyl)pyridin-2-yl)isothiazolidine-3-carboxamide 1,1-dioxide] | 1.1 to 5 µM
22 | Cc1cc(C(F)(F)F)cc(N2[C@H](C(=O)N(CC#Cc3cnc(N4CCOCC4)cn3)c3ccc(F)c(C)c3)CCS2(=O)=O)n1 [Example 39, (S)-N-(4-fluoro-3-methylphenyl)-2-(6-methyl-4-(trifluoromethyl)pyridin-2-yl)-N-(3-(5-orpholinopyrazin-2-yl)prop-2-yn-1-yl)isothiazolidine-3-carboxamide 1,1-dioxide] | < 1 µM
23 | Cc1ccc(F)c(N(CC#Cc2cnc(N3CCOCC3)cn2)C(=O)[C@@H]2CCS(=O)(=O)N2c2cc(C(F)(F)F)cc(C)n2)c1 [Example 40, (S)-N-(2-fluoro-5-methylphenyl)-2-(6-methyl-4-(trifluoromethyl)pyridin-2-yl)-N-(3-(5-morpholinopyrazin-2-yl)prop-2-yn-1-yl)isothiazolidine-3-carboxamide 1,1-dioxide] | 1.1 to 5 µM
